Reference: the Deep4Chem optical property database
Values belong to the compound of their own block, whether it stands above or below them.

Test: photoluminescence quantum yield (fraction); solvent given as SMILES

photoluminescence quantum yield (in ClCCl): 0.2
SMILES: CCCCCCc1cc2c(s1)-c1cc3c(cc1NB2c1ccccc1)-c1sc(CCCCCC)cc1B(c1ccccc1)N3

photoluminescence quantum yield (in CCO): 0.48
SMILES: Cc1ccc2cc3cc(C)ncc3cc2c1

photoluminescence quantum yield (in ClCCl): 0.07
SMILES: N#CC(C#N)=Cc1ccc2c(c1)c1cc(C=C(C#N)C#N)ccc1n2-c1cccc2ccccc12

SMILES: Cc1ccc2c(c1)C1(c3ccccc3-c3ccccc31)c1cc(C)ccc1N2c1ccc(-c2ncccn2)cc1
photoluminescence quantum yield (in O=P(c1ccccc1)(c1ccccc1)c1ccc2oc3ccc(P(=O)(c4ccccc4)c4ccccc4)cc3c2c1): 0.91

photoluminescence quantum yield (in CCO): 0.1
photoluminescence quantum yield (in ClCCl): 0.33
SMILES: c1csc(-c2c3ccc(=[N+]4CCCCC4)cc-3oc3cc(N4CCCCC4)ccc23)c1

photoluminescence quantum yield (in ClCCl): 0.55
SMILES: CC(C)(C)c1ccc2c(c1)c1cc(C(C)(C)C)ccc1n2-c1ccc(N(c2ccc(-c3ccc(N(c4ccc(-n5c6ccc(C(C)(C)C)cc6c6cc(C(C)(C)C)ccc65)cc4)c4ccc(-n5c6ccc(C(C)(C)C)cc6c6cc(C(C)(C)C)ccc65)cc4)cc3)cc2)c2ccc(-n3c4ccc(C(C)(C)C)cc4c4cc(C(C)(C)C)ccc43)cc2)cc1

photoluminescence quantum yield (in ClCCl): 0.258
SMILES: CCOC(=O)c1ccc(C2CC(c3cccc4ccccc34)=NN2c2ccc(C#N)cc2)cc1 (configuration not stated)

SMILES: COc1ccc2c3c(c4ccc(OC)cc4c2c1)=[N+]1C(=C(c2c(C)cc(C)cc2C)c2cc4c5ccc(OC)cc5c5cc(OC)ccc5c4n2[B-]1(F)F)C=3
photoluminescence quantum yield (in C1CCCCC1): 0.63
photoluminescence quantum yield (in C1CCOC1): 0.5
photoluminescence quantum yield (in CC#N): 0.33
photoluminescence quantum yield (in Cc1ccccc1): 0.54
photoluminescence quantum yield (in ClCCl): 0.53

photoluminescence quantum yield (in CN(C)C=O): 0.155
SMILES: CCN(CC)c1ccc(-c2nc(Oc3ccc(-c4nc5ccccc5s4)cc3)nc(Oc3ccc(-c4nc5ccccc5s4)cc3)n2)cc1

photoluminescence quantum yield (in CC1CCCCC1): 0.01
photoluminescence quantum yield (in CC#N): 0.21
photoluminescence quantum yield (in CO): 0.4
SMILES: COC(=O)C(Cc1ccc2oc(-c3ccncc3)nc2c1)NC(=O)OC(C)(C)C (configuration not stated)

SMILES: N#Cc1cccc(N2c3ccccc3C(c3ccccc3)(c3ccccc3)c3ccccc32)c1
photoluminescence quantum yield (in Cc1ccccc1): 0.1

photoluminescence quantum yield (in C1CCCCC1): 0.12
SMILES: c1ccc(-c2cc3cccc4cc(-c5ccccc5)c5cc(-c6cc7[b-]8c(c6)c(-c6ccccc6)cc6cccc(cc7-c7ccccc7)[n+]86)cc2[b-]5[n+]34)cc1

photoluminescence quantum yield (in ClCCl): 0.03
SMILES: c1ccc(-c2cn3ccc[n+]3[n-]2)cc1

photoluminescence quantum yield (in ClCCl): 0.89
SMILES: O=S1(=O)c2ccc(-c3ccc(N(c4ccccc4)c4ccccc4)cc3)cc2C2(c3ccccc3-c3ccccc32)c2cc(-c3ccc(N(c4ccccc4)c4ccccc4)cc3)ccc21

photoluminescence quantum yield (in ClC(Cl)Cl): 0.893
SMILES: CCN(CC)c1ccc2cc(-c3ccc(-c4ccc5ccc6c(-c7ccc(-c8cc9ccc(N(CC)CC)cc9oc8=O)cc7)ccc7ccc4c5c76)cc3)c(=O)oc2c1

SMILES: Cc1c(-c2ccc(N3c4ccccc4C(C)(C)c4ccccc43)cc2)ncnc1-c1ccc(N2c3ccccc3C(C)(C)c3ccccc32)cc1
photoluminescence quantum yield (in O=P(c1ccccc1)(c1ccccc1)c1ccccc1Oc1ccccc1P(=O)(c1ccccc1)c1ccccc1): 0.75

photoluminescence quantum yield (in CO): 0.27
photoluminescence quantum yield (in CS(C)=O): 0.55
photoluminescence quantum yield (in O): 0.05
SMILES: CCCN1/C(=C/C=C/C=C/C2=[N+](CCC)c3ccccc3C2(C)C)C(C)(C)c2ccccc21

photoluminescence quantum yield (in ClC(Cl)Cl): 0.54
SMILES: CCCCc1cc(-c2cccc(COC)c2)oc1-c1cccc(-c2cc(CCCC)c(-c3cccc(-c4cc(CCCC)c(-c5cccc(-c6oc(-c7cccc(-c8oc(-c9cccc(-c%10oc(-c%11cccc(COC)c%11)cc%10CCCC)c9)cc8CCCC)c7)cc6CCCC)c5)o4)c3)o2)c1

SMILES: Cc1cc(C)c(C2=C3C=C(c4ccc(C(C)(C)C)cc4)C(c4ccc(C(C)(C)C)cc4)=[N+]3[B-](F)(F)n3c2cc(-c2ccc(C(C)(C)C)cc2)c3-c2ccc(C(C)(C)C)cc2)c(C)c1
photoluminescence quantum yield (in C1CCCCC1): 0.77
photoluminescence quantum yield (in C1CCOC1): 0.96
photoluminescence quantum yield (in CC#N): 0.62
photoluminescence quantum yield (in Cc1ccccc1): 0.78
photoluminescence quantum yield (in ClCCl): 0.74

photoluminescence quantum yield (in ClCCl): 0.01
SMILES: COc1ccc(/C=C/c2ccncn2)cc1

photoluminescence quantum yield (in C1CCOC1): 0.42
SMILES: COc1cc2c(cc1-c1ccncc1)Cc1c3c(c4c(c1-2)-c1cc(OC)c(-c2ccncc2)cc1C4)C(=O)N(CCC(C)C)C3=O

photoluminescence quantum yield (in CCO): 0.841
SMILES: Cc1c(COC(=O)c2ccccc2Br)n2c(OCC(=O)c3ccccc3Br)c(C)c(=O)n2c1=O

photoluminescence quantum yield (in CCCCCC): 0.69
photoluminescence quantum yield (in CCCCCCCCO): 0.45
photoluminescence quantum yield (in CCOC(C)=O): 0.55
photoluminescence quantum yield (in CN(C)C=O): 0.4
photoluminescence quantum yield (in ClCCl): 0.44
SMILES: CC1=CC(C)=[N+]2C1=Cc1c3ccccc3c(C#Cc3cccs3)n1[B-]2(F)F

photoluminescence quantum yield (in CS(C)=O): 0.36
SMILES: Fc1ccc2c(c1)sc1nc(-c3ccccc3)sc12

SMILES: CN(C)c1ccc(C2=Nc3sc4cc(Cl)ccc4[n+]3[B-](F)(F)O2)cc1
photoluminescence quantum yield (in C1CCOC1): 0.74
photoluminescence quantum yield (in CC#N): 0.12
photoluminescence quantum yield (in CC(C)=O): 0.21
photoluminescence quantum yield (in Cc1ccccc1): 0.91
photoluminescence quantum yield (in ClCCl): 0.78

photoluminescence quantum yield (in ClCCl): 0.215
SMILES: COc1cccc2cc(C)c3c4ccccc4n(C)c3c12

photoluminescence quantum yield (in ClCCl): 0.004
SMILES: COc1cccc2c1oc(=O)c1c(=O)oc3cc(O)ccc3c12

photoluminescence quantum yield (in CO): 0.148
photoluminescence quantum yield (in O): 0.047
SMILES: CN(C)c1ccc2c(c1)C(C)(C)C1=CC(=[N+](C)C)C=CC1=C2C#Cc1ccccc1

SMILES: Cc1ccc(C2=C3C=CC(Cl)=[N+]3[B-](F)(F)n3c(Cl)ccc32)cc1
photoluminescence quantum yield (in C1CCCCC1): 0.33
photoluminescence quantum yield (in C1CCOC1): 0.3
photoluminescence quantum yield (in CC#N): 0.29
photoluminescence quantum yield (in CCOC(C)=O): 0.32
photoluminescence quantum yield (in CO): 0.27
photoluminescence quantum yield (in Cc1ccccc1): 0.59
photoluminescence quantum yield (in ClC(Cl)Cl): 0.63

photoluminescence quantum yield (in ClCCl): 0.082
SMILES: CCCCCc1c(C(=O)c2ccc3c4c(cccc24)-c2cccc4c2C3CC=C4)c2ccc3cccc4c5cccc6ccc1c(c65)c2c34 (configuration not stated)

photoluminescence quantum yield (in CO): 0.0486
SMILES: COc1ccc2[nH]cc(/C=C/C3=[NH+]c4cccc5cccc3c45)c2c1

photoluminescence quantum yield (in ClCCl): 0.12
SMILES: Brc1cc2nc3cc4c5c(cccc5c3nc2cc1Br)C(c1ccccc1)=C(c1ccccc1)O4

SMILES: CN(C)c1ccc(C2=Cc3c4ccccc4c4ccccc4[n+]3[B-](F)(F)O2)cc1
photoluminescence quantum yield (in C1CCOC1): 0.585
photoluminescence quantum yield (in C1COCCO1): 0.855
photoluminescence quantum yield (in CC1CCCCC1): 1
photoluminescence quantum yield (in CC#N): 0.447
photoluminescence quantum yield (in CCOC(C)=O): 0.655
photoluminescence quantum yield (in CCOCC): 0.999
photoluminescence quantum yield (in CN(C)C=O): 0.323
photoluminescence quantum yield (in CO): 0.471
photoluminescence quantum yield (in COC(C)=O): 0.441
photoluminescence quantum yield (in ClC(Cl)Cl): 0.811

photoluminescence quantum yield (in ClCCl): 0.78
SMILES: C(=C\c1nc(/C=C/c2ccc(N(c3ccccc3)c3ccccc3)cc2)cc(/C=C/c2ccc(N(c3ccccc3)c3ccccc3)cc2)n1)/c1ccccc1

photoluminescence quantum yield (in ClCCl): 0.55
SMILES: C(=C\c1cc(/C=C/c2ccc(N(c3ccccc3)c3ccccc3)cc2)ncn1)/c1ccc(N(c2ccccc2)c2ccccc2)cc1

photoluminescence quantum yield (in ClCCl): 0.167
SMILES: CCCCCc1c(C)c2c3ccccc3[nH]c2c2ccccc12

photoluminescence quantum yield (in CN(C)C=O): 0.105
photoluminescence quantum yield (in O): 0.783
SMILES: CC[N+]1(CC)CN2C(C)=CC(C)=C(C(=O)[O-])C2=N1

photoluminescence quantum yield (in C1COCCO1): 0.192
SMILES: COC(=O)c1ccc(/C=C2\C=C(c3ccc(C#N)cc3)N(CC(C)C)C2=O)cc1

SMILES: CC(=O)O[B-]1(OC(C)=O)OC(/C=C/c2ccc(C)cc2)=CC(/C=C/c2ccc(C)cc2)=[O+]1
photoluminescence quantum yield (in C1CCOC1): 0.75
photoluminescence quantum yield (in CC#N): 0.55
photoluminescence quantum yield (in CC(C)=O): 0.58
photoluminescence quantum yield (in CS(C)=O): 0.51
photoluminescence quantum yield (in Cc1ccccc1): 0.88
photoluminescence quantum yield (in ClC(Cl)Cl): 0.63
photoluminescence quantum yield (in ClCCl): 0.56

photoluminescence quantum yield (in C1CCOC1): 0.14
photoluminescence quantum yield (in ClC(Cl)Cl): 0.144
SMILES: CCCCCCCCC1(CCCCCCCC)c2cc3c(cc2-c2sc(-c4ccc(/C=C5\SC(N6CCCCC6)=NC5=O)c5nsnc45)cc21)C(CCCCCCCC)(CCCCCCCC)c1cc(-c2ccc(/C=C4\SC(N5CCCCC5)=NC4=O)c4nsnc24)sc1-3

SMILES: CC1(C)c2cc(C#N)ccc2-c2ccc(N3c4ccccc4Oc4ccccc43)cc21
photoluminescence quantum yield (in C1CCCCC1): 0.044
photoluminescence quantum yield (in C1CCOC1): 0.08
photoluminescence quantum yield (in CC#N): 0.001
photoluminescence quantum yield (in Cc1ccccc1): 0.089
photoluminescence quantum yield (in ClC(Cl)Cl): 0.11

SMILES: COCCC1=Cc2nc1ccc1[nH]c(cc1CCOC)c1nc(c(N3C(=O)CCCC3=O)cc3[nH]c2cc3CCOC)C(CCOC)=C1
photoluminescence quantum yield (in Cc1ccccc1): 0.36

photoluminescence quantum yield (in CCCCCC): 0.13
SMILES: CC(C)[Si](C#Cc1c2nsnc2c(C#C[Si](C(C)C)(C(C)C)C(C)C)c2nc3c(ccc4cc5ccccc5cc43)nc12)(C(C)C)C(C)C

photoluminescence quantum yield (in ClCCl): 0.106
SMILES: CCn1c2c(-c3ccc(-c4cccs4)s3)cc(C(C)(C)C)cc2c2cc(C(C)(C)C)cc(-c3ccc(-c4cccs4)s3)c21

photoluminescence quantum yield (in C1CCCCC1): 0.22
SMILES: COc1ccc(OC)cc1

photoluminescence quantum yield (in CO): 0.55
SMILES: COc1ccc(-c2cc(B(c3c(C)cc(C)cc3C)c3c(C)cc(C)cc3C)c(-c3sc(-c4ccc(OC)cc4)cc3P(=O)(c3ccccc3)c3ccccc3)s2)cc1

photoluminescence quantum yield (in ClCCl): 0.34
SMILES: CCCCCCCCCCCCCCCCCCOC(=O)/C=C/C1=CC2=C(c3c(C)cc(C)cc3C)c3cccn3[B-](F)(F)[N+]2=C1

SMILES: N#Cc1c(-n2c3ccccc3c3ccccc32)c(F)c(-n2c3ccccc3c3ccccc32)c(-n2c3ccccc3c3ccccc32)c1-n1c2ccccc2c2ccccc21
photoluminescence quantum yield (in Cc1ccccc1): 0.81
photoluminescence quantum yield (in c1ccc([Si](c2ccccc2)(c2ccc(-n3c4ccccc4c4ccccc43)cc2)c2ccc(-n3c4ccccc4c4ccccc43)cc2)cc1): 1

photoluminescence quantum yield (in C1COCCO1): 0.043
SMILES: CC(=O)Nc1ccc(C2=C/C(=C\c3ccc([N+](=O)[O-])cc3)C(=O)O2)cc1

SMILES: CCOC(=O)C(C(=O)OCC)C1=[N+]2C(=C(c3ccc(C)cc3)c3ccc(C(C(=O)OCC)C(=O)OCC)n3[B-]2(F)F)C=C1
photoluminescence quantum yield (in C1CCCCC1): 0.62
photoluminescence quantum yield (in C1CCOC1): 0.46
photoluminescence quantum yield (in CCOC(C)=O): 0.38
photoluminescence quantum yield (in CO): 0.35
photoluminescence quantum yield (in Cc1ccccc1): 0.89
photoluminescence quantum yield (in ClC(Cl)Cl): 0.59

photoluminescence quantum yield (in C1CCOC1): 0.09
SMILES: COc1ccc(-c2cc3ccccc3p2-c2ccccc2)cc1 (configuration not stated)

photoluminescence quantum yield (in C1CCCCC1): 0.075
photoluminescence quantum yield (in CC#N): 0.0075
photoluminescence quantum yield (in CCO): 0.00027
photoluminescence quantum yield (in c1ccccc1): 0.073
SMILES: CN(C)c1cccc2c1-c1ccccc1C2=O

SMILES: CC(C)(C)c1ccc2c(c1)c1cc(C(C)(C)C)ccc1n2-c1cc(C(=O)c2ccccn2)cc(-n2c3ccc(C(C)(C)C)cc3c3cc(C(C)(C)C)ccc32)c1
photoluminescence quantum yield (in Cc1ccccc1): 0.072
photoluminescence quantum yield (in c1cc(-c2cccc(-n3c4ccccc4c4ccccc43)c2)cc(-n2c3ccccc3c3ccccc32)c1): 0.96
